From patent US12606551B2, “Salt of tetrahydroisoquinoline derivative, preparation method therefor, and medical use thereof” (ZHEJIANG HISUN PHARMACEUTICAL CO., LTD., priority 2020, dated 2026)

Molecular target: T1, AT1R (Homo sapiens, UniProt P30556)
T1 construct: Tb (terbium) label on the receptor; expressed in transfected cells
T1 sequence (P30556 1-359): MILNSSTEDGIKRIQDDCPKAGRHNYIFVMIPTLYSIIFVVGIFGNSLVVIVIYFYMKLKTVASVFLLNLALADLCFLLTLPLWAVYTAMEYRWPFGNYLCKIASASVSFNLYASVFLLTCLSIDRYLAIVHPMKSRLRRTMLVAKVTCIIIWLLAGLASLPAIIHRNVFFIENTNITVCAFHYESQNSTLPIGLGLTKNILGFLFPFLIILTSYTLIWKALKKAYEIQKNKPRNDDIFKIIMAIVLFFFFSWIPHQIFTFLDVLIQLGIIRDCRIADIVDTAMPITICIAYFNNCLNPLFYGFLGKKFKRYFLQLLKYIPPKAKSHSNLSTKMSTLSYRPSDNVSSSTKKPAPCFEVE
Experiment: Antagonistic activity against AT1R (same method with Tb-labeled-AT1R cells)
Type: binding
Procedure: (12) Similarly, the IC50 of the antagonistic activity of the compounds of the present invention against AT1R was tested according to basically the same method, except that Tb-labeled-AT2R cells were replaced by Tb-labeled-AT1R cells.

## COc1ccc(COc2c(OC)ccc3c2C[C@@H](C(=O)[O-])N(c2nc4ccc(F)cc4o2)C3)nc1.[Na+] [Compound 1]
  IC50: > 10 µM
